Measurements from ChEMBL document CHEMBL5131537 (J Med Chem, 2022).

How the values were obtained:
[1] = Oral bioavailability in Sprague-Dawley rat at 5 mg/kg measured after 0.083 to 24 hrs by LC-MS analysis; format: ADME, organism-based; conditions: in vivo, time 0.083-24 hrs
[2] = Cytotoxicity against human MT4 cells assessed as reduction in cell viability by MTT assay; format: toxicity, cell-based
[3] = test system: Human immunodeficiency virus 1; assay: Antiviral activity against HIV-1 IIIB harboring reverse transcriptase K103N mutant infected in human MT4 cells by MTT assay; format: functional, organism-based; conditions: Human immunodeficiency virus 1, IIIB
[4] = test system: Human immunodeficiency virus 1; assay: Antiviral activity against HIV-1 IIIB harboring reverse transcriptase Y181C mutant infected in human MT4 cells by MTT assay; format: functional, organism-based; conditions: Human immunodeficiency virus 1, IIIB
[5] = test system: Human immunodeficiency virus 1; assay: Antiviral activity against HIV-1 IIIB harboring reverse transcriptase E138K mutant infected in human MT4 cells by MTT assay; format: functional, organism-based; conditions: Human immunodeficiency virus 1, IIIB
[6] = target: Voltage-gated inwardly rectifying potassium channel KCNH2 (Homo sapiens, UniProt Q12809); assay: Inhibition of human ERG potassium channel transfected in CHO cells by automated patch clamp assay; format: toxicity, cell-based
Sequence of Voltage-gated inwardly rectifying potassium channel KCNH2 (Q12809 whole entry): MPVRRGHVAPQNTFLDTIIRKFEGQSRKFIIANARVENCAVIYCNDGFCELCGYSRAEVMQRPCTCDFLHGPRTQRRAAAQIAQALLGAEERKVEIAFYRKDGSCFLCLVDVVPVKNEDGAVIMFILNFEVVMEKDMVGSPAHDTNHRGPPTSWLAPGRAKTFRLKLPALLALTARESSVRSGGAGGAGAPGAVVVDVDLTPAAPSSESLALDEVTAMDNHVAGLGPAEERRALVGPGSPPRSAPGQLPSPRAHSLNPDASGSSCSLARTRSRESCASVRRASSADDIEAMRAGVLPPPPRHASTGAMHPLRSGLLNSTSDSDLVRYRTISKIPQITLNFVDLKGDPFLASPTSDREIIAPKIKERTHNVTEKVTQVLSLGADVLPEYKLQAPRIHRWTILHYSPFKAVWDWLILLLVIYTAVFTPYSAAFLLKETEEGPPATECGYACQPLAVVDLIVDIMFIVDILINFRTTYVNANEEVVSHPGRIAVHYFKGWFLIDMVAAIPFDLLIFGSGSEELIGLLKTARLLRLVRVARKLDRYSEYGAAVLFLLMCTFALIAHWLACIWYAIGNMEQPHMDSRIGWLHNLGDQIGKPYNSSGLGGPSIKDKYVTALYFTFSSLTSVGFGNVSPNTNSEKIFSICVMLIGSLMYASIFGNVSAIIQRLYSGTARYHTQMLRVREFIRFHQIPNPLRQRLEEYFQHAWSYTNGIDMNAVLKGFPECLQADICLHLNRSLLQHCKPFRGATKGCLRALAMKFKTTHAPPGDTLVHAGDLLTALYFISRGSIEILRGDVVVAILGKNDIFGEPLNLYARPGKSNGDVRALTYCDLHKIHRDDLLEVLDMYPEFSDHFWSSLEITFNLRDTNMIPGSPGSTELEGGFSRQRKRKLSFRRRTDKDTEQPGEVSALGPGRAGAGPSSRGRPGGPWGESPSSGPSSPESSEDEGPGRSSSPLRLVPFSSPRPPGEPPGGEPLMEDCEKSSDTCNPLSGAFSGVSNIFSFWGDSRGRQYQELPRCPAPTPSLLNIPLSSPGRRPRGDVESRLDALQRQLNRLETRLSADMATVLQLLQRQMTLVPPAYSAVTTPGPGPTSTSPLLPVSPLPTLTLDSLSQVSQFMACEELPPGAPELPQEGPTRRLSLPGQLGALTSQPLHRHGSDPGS

Cytochrome P450 2C9 = Cytochrome P450 2C9 (Homo sapiens, UniProt P11712); assay: Inhibition of CYP2C9 in human liver microsomes using diclofenac as substrate incubated for 15 to 45 mins in presence of NADPH
Sequence of Cytochrome P450 2C9 (P11712 whole entry): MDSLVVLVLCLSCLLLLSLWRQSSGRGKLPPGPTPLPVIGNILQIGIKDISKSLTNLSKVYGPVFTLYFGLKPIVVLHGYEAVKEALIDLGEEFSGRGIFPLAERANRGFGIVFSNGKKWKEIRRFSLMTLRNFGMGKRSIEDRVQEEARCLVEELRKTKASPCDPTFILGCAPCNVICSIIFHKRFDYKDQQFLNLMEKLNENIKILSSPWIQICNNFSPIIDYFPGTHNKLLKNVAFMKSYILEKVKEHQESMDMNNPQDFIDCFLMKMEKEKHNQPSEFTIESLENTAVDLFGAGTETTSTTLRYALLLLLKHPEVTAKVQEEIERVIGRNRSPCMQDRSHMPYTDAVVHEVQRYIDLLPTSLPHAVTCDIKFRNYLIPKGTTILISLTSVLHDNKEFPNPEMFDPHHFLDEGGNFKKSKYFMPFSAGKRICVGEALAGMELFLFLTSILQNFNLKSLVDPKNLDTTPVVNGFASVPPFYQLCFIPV

Cytochrome P450 2C19 = Cytochrome P450 2C19 (Homo sapiens, UniProt P33261); assay: Inhibition of CYP2C19 in human liver microsomes using S-mephenytoin as substrate incubated for 15 to 45 mins in presence of NADPH
Sequence of Cytochrome P450 2C19 (P33261 whole entry): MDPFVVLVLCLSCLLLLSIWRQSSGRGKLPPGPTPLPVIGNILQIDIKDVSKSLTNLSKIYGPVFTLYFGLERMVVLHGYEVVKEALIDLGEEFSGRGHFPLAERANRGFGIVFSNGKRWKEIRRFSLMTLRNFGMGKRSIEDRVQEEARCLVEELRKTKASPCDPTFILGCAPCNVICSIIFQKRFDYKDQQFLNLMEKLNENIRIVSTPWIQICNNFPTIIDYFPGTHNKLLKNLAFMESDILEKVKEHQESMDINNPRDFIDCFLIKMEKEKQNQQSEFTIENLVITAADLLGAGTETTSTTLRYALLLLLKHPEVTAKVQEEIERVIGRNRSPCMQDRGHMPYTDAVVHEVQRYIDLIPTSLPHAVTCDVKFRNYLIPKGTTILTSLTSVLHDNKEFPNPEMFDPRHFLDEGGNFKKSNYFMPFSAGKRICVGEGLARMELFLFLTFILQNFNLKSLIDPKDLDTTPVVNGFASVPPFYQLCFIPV

Cytochrome P450 3A4 = Cytochrome P450 3A4 (Homo sapiens, UniProt P08684); assay: Inhibition of CYP3A4 in human liver microsomes using midazolam as substrate incubated for 15 to 45 mins in presence of NADPH
Sequence of Cytochrome P450 3A4 (P08684 whole entry): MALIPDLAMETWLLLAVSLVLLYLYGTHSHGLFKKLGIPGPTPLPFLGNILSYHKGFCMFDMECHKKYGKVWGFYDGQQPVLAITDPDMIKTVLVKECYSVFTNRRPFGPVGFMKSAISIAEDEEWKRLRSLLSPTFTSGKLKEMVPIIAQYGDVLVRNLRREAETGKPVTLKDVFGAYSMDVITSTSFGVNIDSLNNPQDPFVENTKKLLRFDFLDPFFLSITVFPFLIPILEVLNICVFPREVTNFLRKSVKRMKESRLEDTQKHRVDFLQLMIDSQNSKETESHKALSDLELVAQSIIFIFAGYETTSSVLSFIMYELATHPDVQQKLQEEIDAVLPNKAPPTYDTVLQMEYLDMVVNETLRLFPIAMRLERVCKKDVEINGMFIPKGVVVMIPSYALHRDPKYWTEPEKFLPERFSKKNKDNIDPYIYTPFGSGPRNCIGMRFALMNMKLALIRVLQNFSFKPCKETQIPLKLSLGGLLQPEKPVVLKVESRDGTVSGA

hERG (KCNH2) = hERG (KCNH2) (Homo sapiens, UniProt Q12809); assay: Inhibition of human ERG potassium channel transfected in CHO cells at 40 uM by automated patch clamp assay; format: toxicity, cell-based; conditions: CHO cells transfected with hERG
Sequence of hERG (KCNH2) (Q12809 whole entry): as the sequence (Q12809 whole entry) above

[7] = Half life in Sprague-Dawley rat at 5 mg/kg, po measured after 0.083 to 24 hrs by LC-MS analysis; format: ADME, organism-based; conditions: in vivo, time 0.083-24 hrs
[8] = Tmax in Sprague-Dawley rat at 5 mg/kg, po measured after 0.083 to 24 hrs by LC-MS analysis; format: ADME, organism-based; conditions: in vivo, time 0.083-24 hrs
[9] = Cmax in Sprague-Dawley rat at 1 mg/kg, iv measured after 0.083 to 24 hrs by LC-MS analysis; format: ADME, organism-based; set-up: time upper 24 hrs, dose 1 mg/kg, time lower 0.083 hrs, route iv; conditions: in vivo
[10] = Cmax in Sprague-Dawley rat at 5 mg/kg, po measured after 0.083 to 24 hrs by LC-MS analysis; format: ADME, organism-based; set-up: dose 5 mg/kg, time 0.083-24 hrs, route po; conditions: in vivo
[11] = AUC (0 to t) in Sprague-Dawley rat at 1 mg/kg, iv measured after 0.083 to 24 hrs by LC-MS analysis; format: ADME, organism-based; set-up: time upper 24 hrs, dose 1 mg/kg, time lower 0.083 hrs, route iv; conditions: in vivo
[12] = AUC (0 to infinity) in Sprague-Dawley rat at 1 mg/kg, iv measured after 0.083 to 24 hrs by LC-MS analysis; format: ADME, organism-based; set-up: dose 1 mg/kg, time 0.083-24 hrs, route iv; conditions: in vivo
[13] = MRT (0 to infinity) in Sprague-Dawley rat at 5 mg/kg, po measured after 0.083 to 24 hrs by LC-MS analysis; format: ADME, organism-based; conditions: in vivo, time 0.083-24 hrs
[14] = Clearance in Sprague-Dawley rat at 1 mg/kg, iv measured after 0.083 to 24 hrs by LC-MS analysis; format: ADME, organism-based; conditions: in vivo, time 0.083-24 hrs
[15] = Clearance in Sprague-Dawley rat at 5 mg/kg, po measured after 0.083 to 24 hrs by LC-MS analysis; format: ADME, organism-based; conditions: in vivo, time 0.083-24 hrs
[16] = Acute toxicity in 12 hr fasted male CD-1(ICR) mouse assessed as animal death at 2 g/kg, IG administered as single dose measured after 14 days; conditions: in vivo, po, 2000 mg/kg, 336 h, time 14 day
[17] = Acute toxicity in 12 hr fasted female CD-1(ICR) mouse assessed as animal death at 2 g/kg, IG administered as single dose measured after 14 days; conditions: in vivo, po, 2000 mg/kg, 336 h, time 14 day
[18] = Acute toxicity in 12 hr fasted male CD-1(ICR) mouse assessed as changes in body weight at 2 g/kg, IG administered as single dose measured after 14 days; conditions: in vivo, po, 2000 mg/kg, 336 h, time 14 day
[19] = Acute toxicity in 12 hr fasted female CD-1(ICR) mouse assessed as changes in body weight at 2 g/kg, IG administered as single dose measured after 14 days; conditions: in vivo, po, 2000 mg/kg, 336 h, time 14 day
[20] = Acute toxicity in 12 hr fasted female CD-1(ICR) mouse assessed as behavioral abnormalities at 2 g/kg, IG administered as single dose measured after 14 days; conditions: in vivo, po, 2000 mg/kg, 336 h, time 14 day
[21] = Acute toxicity in 12 hr fasted male CD-1(ICR) mouse assessed as pathological damage in liver at 2 g/kg, IG administered as single dose measured after 14 days by H and E staining based analysis; format: tissue-based; conditions: in vivo, po, 2000 mg/kg, 336 h, time 14 day
[22] = Acute toxicity in 12 hr fasted female CD-1(ICR) mouse assessed as pathological damage in liver at 2 g/kg, IG administered as single dose measured after 14 days by H and E staining based analysis; format: tissue-based; conditions: in vivo, po, 2000 mg/kg, 336 h, time 14 day
[23] = Acute toxicity in 12 hr fasted male CD-1(ICR) mouse assessed as pathological damage in heart at 2 g/kg, IG administered as single dose measured after 14 days by H and E staining based analysis; format: tissue-based; conditions: in vivo, po, 2000 mg/kg, 336 h, time 14 day
[24] = Acute toxicity in 12 hr fasted female CD-1(ICR) mouse assessed as pathological damage in heart at 2 g/kg, IG administered as single dose measured after 14 days by H and E staining based analysis; format: tissue-based; conditions: in vivo, po, 2000 mg/kg, 336 h, time 14 day
[25] = Acute toxicity in 12 hr fasted male CD-1(ICR) mouse assessed as pathological damage in brain at 2 g/kg, IG administered as single dose measured after 14 days by H and E staining based analysis; format: tissue-based; conditions: in vivo, po, 2000 mg/kg, 336 h, time 14 day
[26] = Acute toxicity in 12 hr fasted female CD-1(ICR) mouse assessed as pathological damage in brain at 2 g/kg, IG administered as single dose measured after 14 days by H and E staining based analysis; format: tissue-based; conditions: in vivo, po, 2000 mg/kg, 336 h, time 14 day
[27] = Acute toxicity in 12 hr fasted male CD-1(ICR) mouse assessed as pathological damage in spleen at 2 g/kg, IG administered as single dose measured after 14 days by H and E staining based analysis; format: tissue-based; conditions: in vivo, po, 2000 mg/kg, 336 h, time 14 day
[28] = Acute toxicity in 12 hr fasted female CD-1(ICR) mouse assessed as pathological damage in spleen at 2 g/kg, IG administered as single dose measured after 14 days by H and E staining based analysis; format: tissue-based; conditions: in vivo, po, 2000 mg/kg, 336 h, time 14 day
[29] = Acute toxicity in 12 hr fasted male CD-1(ICR) mouse assessed as pathological damage in kidney at 2 g/kg, IG administered as single dose measured after 14 days by H and E staining based analysis; format: tissue-based; conditions: in vivo, po, 2000 mg/kg, 336 h, time 14 day
[30] = Acute toxicity in 12 hr fasted female CD-1(ICR) mouse assessed as pathological damage in kidney at 2 g/kg, IG administered as single dose measured after 14 days by H and E staining based analysis; format: tissue-based; conditions: in vivo, po, 2000 mg/kg, 336 h, time 14 day
[31] = target: Human immunodeficiency virus type 1 reverse transcriptase (Human immunodeficiency virus 1, UniProt Q72547)
Description: Inhibition of HIV-1 reverse transcriptase using oligo(dT)16 as primer measured after 40 mins by picogreen-dye based spectrofluorometric analysis

in vitro = conditions: human, MT4 cells
Description: Selectivity index, ratio of CC50 for cytotoxicity against human MT4 cells to EC50 for antiviral activity against wild type HIV-1 IIIB infected in human MT4 cells

[32] = test system: Human immunodeficiency virus 1; assay: microbe, parasite or virus in culture; conditions: Human immunodeficiency virus 1, IIIB, MT4
Description: Antiviral activity against wild type HIV-1 IIIB infected in human MT4 cells assessed as protection against virus-induced cytopathic effect by MTT assay

[33] = test system: Human immunodeficiency virus 1; assay: microbe, parasite or virus in culture; conditions: Human immunodeficiency virus 1, IIIB, MT4; remark: listed apart in the source
Description: Antiviral activity against HIV-1 IIIB harboring reverse transcriptase Y188L mutant infected in human MT4 cells by MTT assay

## COc1cc(-c2ccc(C#N)cc2)ccc1Oc1cc(N)nc(Nc2ccc(C#N)cc2)n1
[1]
  bioavailability: 7.57%
[2]
  CC50: 120000 nM
[3]
  EC50: 4 nM
[4]
  EC50: 29 nM
[5]
  EC50: 9 nM
[6]
  IC50: > 40000 nM
Cytochrome P450 2C9
  IC50: 5160 nM
Cytochrome P450 2C19
  IC50: 4510 nM
Cytochrome P450 3A4
  IC50: > 50000 nM
hERG (KCNH2)
  inhibition at 40 µM: 35.9%
[7]
  half-life: 2.33 h
[8]
  Tmax: 0.83 h
[9]
  Cmax: 329 ng/mL
[10]
  Cmax: 44.8 ng/mL
[11]
  AUC(0-t): 326 ng·h/mL
[12]
  AUC(0-inf): 329 ng·h/mL
[13]
  MRT inf: 2.89 h
[14]
  clearance: 51.6 mL/min/kg
[15]
  CL/F: 675 mL/min/kg
[16]
  Activity: Non-Toxic
[17]
  Activity: Non-Toxic
[18]
  Activity: Non-Toxic
[19]
  Activity: Non-Toxic
[20]
  Activity: Non-Toxic
[21]
  Activity: Non-Toxic
[22]
  Activity: Non-Toxic
[23]
  Activity: Non-Toxic
[24]
  Activity: Non-Toxic
[25]
  Activity: Non-Toxic
[26]
  Activity: Non-Toxic
[27]
  Activity: Non-Toxic
[28]
  Activity: Non-Toxic
[29]
  Activity: Non-Toxic
[30]
  Activity: Non-Toxic
[31]
  IC50: 36 nM
In vitro
  selectivity ratio: 63400
[32]
  EC50: 1.9 nM
[33]
  EC50: 570 nM
